Consider 12 molecules from ChEMBL document CHEMBL1799932, “Antimalarial pyrido[1,2-a]benzimidazoles” (J Med Chem, 2011).

The structures appear in SMILES notation.

Series [1] can be described thus: Metabolic stability in human liver microsomes assessed as degradation half life after 60 mins by LC-MS analysis. It is filed as ADME, Microsome. On the technique in general: Liver microsomes are vesicles of endoplasmic reticulum, rich in cytochrome P450 enzymes.
Series [2] in a line: Metabolic stability in mouse liver microsomes assessed as intrinsic clearance per mg protein after 60 mins by LC-MS analysis. It is filed as ADME, Microsome.
Series [3] is described as follows: Metabolic stability in rat liver microsomes assessed as degradation half life after 60 mins by LC-MS analysis. Type of series: ADME, Microsome.
A short description of series [4]: Metabolic stability in human liver microsomes assessed as intrinsic clearance per mg protein after 60 mins by LC-MS analysis. It is filed as ADME, Microsome.
Series [5] relates to Plasmodium berghei. The series is described as follows: Antimalarial activity against GFP-transfected Plasmodium berghei strain ANKA infected in NMRI mouse assessed as increase in mean survival time at 25 mg/kg, po administered as single dose (reference value: 5 days ).
Series [6] has as its system Plasmodium berghei. The series can be described thus: Antimalarial activity against GFP-transfected Plasmodium berghei strain ANKA infected in NMRI mouse assessed as reduction in parasitemia at 25 mg/kg, po administered as single dose measured on day 2 by FACS analysis. Set-up: scale not given: the % may be the effect or the level left. It is filed as functional.
Series [7] relates to Plasmodium berghei. The series is described as follows: Antimalarial activity against GFP-transfected Plasmodium berghei strain ANKA infected in NMRI mouse assessed as reduction in parasitemia at 25 mg/kg, po administered as single dose measured on day 5 by FACS analysis. It is filed as functional. The arrangement: scale not given: the % may be the effect or the level left.

In series [8] the test system is Plasmodium berghei. The series is described as follows: Antimalarial activity against GFP-transfected Plasmodium berghei strain ANKA infected in NMRI mouse assessed as reduction in parasitemia at 25 mg/kg, po administered as single dose measured on day 3 by FACS analysis. It is filed as functional. Set-up: scale not given: the % may be the effect or the level left.

Series [9] in a line: Metabolic stability in rat liver microsomes assessed as intrinsic clearance per mg protein after 60 mins by LC-MS analysis. It is filed as ADME, Microsome.
Series [10] in a line: Metabolic stability in mouse liver microsomes assessed as degradation half life after 60 mins by LC-MS analysis. Type of series: ADME, Microsome.
Series [11] has as its system Plasmodium berghei. The series is described as follows: Antimalarial activity against GFP-transfected Plasmodium berghei strain ANKA infected in NMRI mouse assessed as reduction in parasitemia at 25 mg/kg, po administered as single dose measured on day 4 by FACS analysis. The arrangement: scale not given: the % may be the effect or the level left. Type of series: functional. (In general: Flow cytometry measures light scatter and fluorescence of single cells or particles in a stream.)

The test system of series [12] is Plasmodium falciparum. The series can be described thus: microbe, parasite or virus in culture. Conditions: K1.
Description: Antimalarial activity against Plasmodium falciparum K1
For series [13], the system named is Plasmodium falciparum. The series is described as follows: microbe, parasite or virus in culture. As to conditions: W2, 48 h.
Series [14] concerns Plasmodium falciparum. The series can be described thus: microbe, parasite or virus in culture. As to conditions: HB3.
Description: Antimalarial activity against Plasmodium falciparum HB3
Series [15] concerns Plasmodium falciparum. The series can be described thus: microbe, parasite or virus in culture. As to conditions: Mad20/Papua New Guinea.
Description: Antimalarial activity against Plasmodium falciparum Mad20
The subject of series [16] is Plasmodium falciparum. The series can be described thus: microbe, parasite or virus in culture. As to conditions: FCR-3/Gambia.
Description: Antimalarial activity against Plasmodium falciparum FCR3
Series [17] concerns Plasmodium falciparum. The series is described as follows: microbe, parasite or virus in culture. As to conditions: FC27/Papua New Guinea.
Description: Antimalarial activity against Plasmodium falciparum FC27
The test system of series [18] is Plasmodium falciparum. The series is described as follows: microbe, parasite or virus in culture. As to conditions: NF54.
Description: Antimalarial activity against Plasmodium falciparum NF54
The subject of series [19] is Plasmodium berghei. The series is described as follows: Antimalarial activity against GFP-transfected Plasmodium berghei strain ANKA infected in NMRI mouse assessed as reduction in parasitemia at 50 mg/kg/day, ip administered for 4 consecutive days measured 24 hrs after last treatment by FACS analysis relative to control. Type of series: functional. The arrangement: scale not given: the % may be the effect or the level left. Conditions: route intraperitoneal.

Series [20] concerns L6. The series is described as follows: Cytotoxicity at rat L6 cells after 72 hrs by microplate alamar blue assay. It is filed as cell-based. For orientation: Alamar Blue is a resazurin reagent that responds to reducing activity.
Series [21] deals with Plasmodium berghei. The series is described as follows: Antimalarial activity against GFP-transfected Plasmodium berghei strain ANKA infected in NMRI mouse assessed as increase in median survival time at 100 mg/kg/day, po administered for 4 days measured up to 30 days post infection (reference value: 5 to 7 days). Type of series: functional.
For series [22], the system named is Plasmodium berghei. The series can be described thus: Antimalarial activity against GFP-transfected Plasmodium berghei strain ANKA infected in NMRI mouse assessed as increase in median survival time at 50 mg/kg/day, ip administered for 4 days measured up to 30 days post infection (reference value: 5 to 7 days). Type of series: functional. Conditions: route intraperitoneal.

For series [23], the system named is Plasmodium berghei. The series is described as follows: Antimalarial activity against GFP-transfected Plasmodium berghei strain ANKA infected in NMRI mouse assessed as reduction in parasitemia at 100 mg/kg/day, po administered for 4 consecutive days measured 24 hrs after last treatment by FACS analysis relative to control. It is filed as functional. Set-up: scale not given: the % may be the effect or the level left.

Series [24] has as its system Plasmodium falciparum.
Description: (§1) Antimalarial activity against multidrug-resistant Plasmodium falciparum K1 infected in human red blood cells assessed as 3H-hypoxanthine incorporation after 48 hrs by liquid scintillation counting
Series [25] deals with Plasmodium falciparum. The series is described as follows: microbe, parasite or virus in culture. Conditions: K1. This is another data set of the same source.
Description: as §1
Series [26] is described as follows: Selectivity index, ratio IC50 for rat L6 cells to IC50 for multidrug-resistant Plasmodium falciparum K1 infected in human red blood cells. It is filed as functional.
Series [27] can be described thus: Distribution coefficient, log D of the compound at pH 7.4. Type of series: physicochemical. Conditions: octanol/water.

On to `Cl.N#Cc1c(-c2ccc(C(F)(F)F)cc2)cc(NCCN2CCCCC2)n2c1nc1ccccc12`, for which the half-life in [1] was determined as 37.9 min; in series [3] it was 64.2 min; in [10], 59.5 min. The microsomal CLint is 29.1 µL/min/mg in series [2], 45.8 µL/min/mg in series [4] and 27 µL/min/mg in [9]. Moreover, the MSD in series [5] is 12.7 days. In addition, the Activity in series [6] is on record as 28.44%; in series [7], 46.41%; in [8] it was 28.07%; in series [11], 38.72%.

For `CCc1nc(N)nc(N)c1-c1ccc(Cl)cc1` [PYRIMETHAMINE], the IC50 in [12] is 9900 nM; in series [13] it was 29500 nM; in series [14], 1150 nM; in [15], less than 60 nM; in series [16] it was 12 nM; in series [17], less than 60 nM. Also, the IC50 in [18] was found to be 19 nM.

On to `CN(C)CCNc1cc(-c2ccc(C(F)(F)F)cc2)c(C#N)c2nc3ccccc3n12.CS(=O)(=O)O`, for which the Activity in series [19] came to 94.1%; in [23] it was 96.8%. Further, the half-inhibitory concentration (IC50) in [20] (l6) was more than 175000 nM; in series [24], 140 nM. Moreover, the MSD in [21] is 13.7 days; in series [22], 11 days.

With `CCN(CC)CCCNc1cc(-c2ccc(C(F)(F)F)cc2)c(C#N)c2nc3ccccc3n12.Cl`, the Activity in series [19] was 72.6%; in [23], 93.4%. Besides, the IC50 came out at 2230 nM in [20] (l6) and 160 nM in series [24]. Further, the MSD in [21] worked out at 11 days; in [22], 9 days.

For `CCCc1cc(N2CCN(Cc3ccc(F)cc3)CC2)n2c(nc3ccccc32)c1C#N`, the values for the half-inhibitory concentration (IC50) in [12] and in series [18] were 23 nM and 53 nM, respectively.

Regarding `C[C@@H]1CC[C@H]2[C@@H](C)C(=O)O[C@@H]3O[C@@]4(C)CC[C@@H]1[C@]32OO4` [ARTEMISININ], the IC50 in [14] worked out at 3 nM; in [25], 6 nM; in [15] it was 8 nM; in [16] it was 5 nM.

Turning to `Cl.N#Cc1c(-c2ccc(C(F)(F)F)cc2)cc(NCCCN2CCOCC2)n2c1nc1ccccc12`, the half-life in [1] was 10.4 min; in series [3], 7.4 min; in series [10], 19.9 min. The microsomal CLint in [2] came out at 87 µL/min/mg; in [4] it was 166 µL/min/mg; in series [9], 234 µL/min/mg.

`CCN(CC)CCNc1cc(-c2ccc(C(F)(F)F)cc2)c(C#N)c2nc3ccccc3n12.CS(=O)(=O)O`: the Activity amounted to 95.2% in [19] and 97.4% in [23]. Further, the IC50 in [20] (l6) was determined as 124000 nM; in series [24], 90 nM. Further, the MSD in [21] and in series [22] was 11 days in each case.

`Cc1cc(N2CCN(Cc3ccccc3)CC2)n2c(nc3ccccc32)c1C#N`: the 50% inhibitory concentration (IC50) came to 50 nM in series [12] and 52 nM in series [18].

For `CCNCCNc1cc(-c2ccc(C(F)(F)F)cc2)c(C#N)c2nc3ccccc3n12`, the IC50 amounted to 116 nM in series [12]; 123 nM in series [13]; 90 nM in [14]; 120 nM in series [25]; 2460 nM in series [20] (Rattus norvegicus, L6, 72 h); 106 nM in [15]. Besides, the IC50 in series [16] is 154 nM; in series [17], 110 nM; in [18], 110 nM. For the same molecule, in series [26], the “Ratio IC50” value came out at 20.5. This molecule came in with a logD in [27] of 2.01.

As for `Cl.N#Cc1c(-c2ccc(C(F)(F)F)cc2)cc(NCCN2CCOCC2)n2c1nc1ccccc12`, the results for the half-life in [1], in series [3] and in [10] were 15.9 min, 16 min and 26.6 min, respectively. The intrinsic metabolic clearance (microsomal CLint) in series [2] amounted to 65.2 µL/min/mg; in [4], 109 µL/min/mg; in [9], 108 µL/min/mg.

`OC(c1cc(C(F)(F)F)nc2c(C(F)(F)F)cccc12)C1CCCCN1` (stereo not given) [MEFLOQUINE]: the figures for the 50% inhibitory concentration (IC50) in [15], in series [17] and in series [18] were 13 nM, less than 40 nM and 13 nM, respectively.

One may read the half-life as how long it takes for the measured level to halve. As usually defined, the microsomal CLint is the capacity of the preparation to metabolise the compound, expressed as a volume cleared per time. The term IC50 denotes the point on the concentration scale where inhibition reaches its midpoint. As usually defined, the logD is the decadic logarithm of the distribution of all forms, ionised or not, between an organic phase and buffer at a given pH.
